The target of one experiment is NaV1.2[F385C] (Rattus norvegicus, UniProt P04775, F385C). Conditions: cited from earlier work.
In another experiment the target is NaV1.2 (Rattus norvegicus, UniProt P04775).

Here are results for 1 compound from article PMC2878737 (Channels (Austin, Tex.), 2009).

Molecules are shown by their SMILES.

Chain of NaV1.2[F385C] (P04775 whole entry F385C, looked up): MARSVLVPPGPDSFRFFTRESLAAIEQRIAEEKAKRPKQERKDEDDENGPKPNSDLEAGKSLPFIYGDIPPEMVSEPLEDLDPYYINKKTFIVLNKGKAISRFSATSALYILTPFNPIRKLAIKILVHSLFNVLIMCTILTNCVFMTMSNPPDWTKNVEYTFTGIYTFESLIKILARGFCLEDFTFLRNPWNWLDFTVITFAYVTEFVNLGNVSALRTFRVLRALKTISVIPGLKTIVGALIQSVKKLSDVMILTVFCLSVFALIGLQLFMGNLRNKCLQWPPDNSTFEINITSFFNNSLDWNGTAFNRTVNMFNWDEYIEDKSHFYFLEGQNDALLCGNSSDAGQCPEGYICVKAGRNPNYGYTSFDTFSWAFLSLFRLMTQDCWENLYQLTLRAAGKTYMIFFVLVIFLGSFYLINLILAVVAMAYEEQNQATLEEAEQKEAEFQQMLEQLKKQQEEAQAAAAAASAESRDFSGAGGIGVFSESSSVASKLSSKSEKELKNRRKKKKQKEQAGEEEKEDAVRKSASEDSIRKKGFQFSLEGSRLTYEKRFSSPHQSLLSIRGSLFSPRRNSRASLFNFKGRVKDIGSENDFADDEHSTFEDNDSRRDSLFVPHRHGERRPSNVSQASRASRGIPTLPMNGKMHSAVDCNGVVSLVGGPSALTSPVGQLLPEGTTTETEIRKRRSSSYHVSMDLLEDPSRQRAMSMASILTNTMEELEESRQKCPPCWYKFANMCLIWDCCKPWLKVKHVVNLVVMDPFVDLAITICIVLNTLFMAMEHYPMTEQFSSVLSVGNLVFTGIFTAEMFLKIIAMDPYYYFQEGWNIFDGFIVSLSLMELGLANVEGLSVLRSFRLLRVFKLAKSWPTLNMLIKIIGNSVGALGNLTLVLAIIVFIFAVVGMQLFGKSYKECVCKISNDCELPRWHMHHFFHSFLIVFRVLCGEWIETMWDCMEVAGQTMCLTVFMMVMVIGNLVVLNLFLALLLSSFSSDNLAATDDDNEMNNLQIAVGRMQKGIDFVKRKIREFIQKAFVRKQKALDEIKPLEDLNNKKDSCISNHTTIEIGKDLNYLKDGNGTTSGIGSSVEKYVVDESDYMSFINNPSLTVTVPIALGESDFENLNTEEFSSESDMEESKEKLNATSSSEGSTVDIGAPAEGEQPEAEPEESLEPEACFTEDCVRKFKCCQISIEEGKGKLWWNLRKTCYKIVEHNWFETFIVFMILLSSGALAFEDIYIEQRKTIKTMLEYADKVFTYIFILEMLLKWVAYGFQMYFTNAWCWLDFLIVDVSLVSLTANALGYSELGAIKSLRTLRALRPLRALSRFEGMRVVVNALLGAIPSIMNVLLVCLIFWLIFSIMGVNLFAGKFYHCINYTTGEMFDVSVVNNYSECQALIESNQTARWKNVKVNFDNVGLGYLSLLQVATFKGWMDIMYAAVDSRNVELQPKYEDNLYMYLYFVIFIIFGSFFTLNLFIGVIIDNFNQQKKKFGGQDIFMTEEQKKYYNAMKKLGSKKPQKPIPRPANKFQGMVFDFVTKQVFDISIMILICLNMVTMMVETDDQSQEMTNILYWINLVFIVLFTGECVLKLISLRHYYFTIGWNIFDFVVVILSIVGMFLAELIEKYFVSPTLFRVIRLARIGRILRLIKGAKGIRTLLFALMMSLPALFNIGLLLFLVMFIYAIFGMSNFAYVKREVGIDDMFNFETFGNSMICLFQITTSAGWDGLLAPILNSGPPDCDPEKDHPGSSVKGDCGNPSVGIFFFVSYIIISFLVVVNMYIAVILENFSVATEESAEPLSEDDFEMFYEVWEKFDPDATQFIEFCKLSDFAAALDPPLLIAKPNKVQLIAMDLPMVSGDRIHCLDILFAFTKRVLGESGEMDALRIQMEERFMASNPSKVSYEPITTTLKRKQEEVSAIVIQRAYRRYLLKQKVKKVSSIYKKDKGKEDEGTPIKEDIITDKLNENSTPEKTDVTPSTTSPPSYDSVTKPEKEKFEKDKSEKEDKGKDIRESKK
Chain of NaV1.2 (P04775 whole entry, looked up): as the sequence (P04775 whole entry F385C, looked up) above, with C385F counted along it

`NC1=N[C@H](O)[C@H]2[C@H]3O[C@]4(O)O[C@@H]([C@@H](O)[C@@]2(N1)[C@@H]4O)[C@]3(O)CO` [TTX, Tetrodotoxin]: the “sensitivity of NaV1.2[F385C]” value at NaV1.2[F385C] is given as “insensitive”. Moreover, the “Plateau of block at saturating [toxin] (Langmuir fit)” value at NaV1.2 worked out at 100%.
